# Test results as given in publication PMC11351036, “Biochemical characterization of a SusD-like protein involved in β-1,3-glucan utilization by an uncultured cow rumen Bacteroides” (mSphere, 2024).
# Biological target: T1, 41O1_SusD-like (uncultured Bacteroides sp., UniProt Z9V4V4YR65)
# T1 construct: mature protein without predicted lipoprotein signal peptide, N-terminal 6-His tag (pET-28a(+)), E. coli BL21(DE3), codon-optimized gene, 57 kDa, monomer fraction used
# T1 sequence (Z9V4V4YR65 22-505): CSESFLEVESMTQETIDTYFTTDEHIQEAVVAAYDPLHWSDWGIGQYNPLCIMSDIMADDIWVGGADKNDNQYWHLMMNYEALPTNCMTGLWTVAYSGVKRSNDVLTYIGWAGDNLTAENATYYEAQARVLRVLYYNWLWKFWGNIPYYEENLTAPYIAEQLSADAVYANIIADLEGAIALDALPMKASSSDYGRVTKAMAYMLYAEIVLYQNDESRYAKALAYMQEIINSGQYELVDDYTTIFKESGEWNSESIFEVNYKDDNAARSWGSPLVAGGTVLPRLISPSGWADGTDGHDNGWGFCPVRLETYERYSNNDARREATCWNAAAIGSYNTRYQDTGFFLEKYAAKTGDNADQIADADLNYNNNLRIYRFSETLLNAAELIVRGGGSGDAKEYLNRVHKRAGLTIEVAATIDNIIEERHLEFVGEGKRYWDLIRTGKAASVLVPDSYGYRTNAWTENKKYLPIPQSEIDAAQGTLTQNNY
# Assay: thermal shift, Tycho NT.[…] intrinsic fluorescence
# Type: binding
# Conditions: 0.5% (w/v) ligand, 10 µM protein, 20 mM Tris-HCl, 150 mM NaCl, pH 7.4
compound,measurement,value
OC[C@H]1O[C@@H](O[C@@H]2[C@@H](O)[C@H](O[C@H]3[C@H](O)[C@@H](CO)OC(O)[C@@H]3O)O[C@H](CO)[C@H]2O)[C@H](O)[C@@H](O)[C@@H]1O (some centres unmarked) [Laminaritriose],∆T°C,4.7 °C
OC[C@H]1O[C@@H](O[C@H]2[C@H](O)[C@@H](O)[C@H](O[C@H]3[C@H](O)[C@@H](O)C(O)O[C@@H]3CO)O[C@@H]2CO)[C@H](O)[C@@H](O)[C@@H]1O (some centres unmarked) [Cellotriose],∆T°C,1.2 °C
